PubChem BioAssay (NCI)
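Step 1: Grow cells in 96-well plates. Step 2: Expose to compound for 48 hours at 5 concentrations. Step 3: Interpolate endpoints linearly; if unreached, use highest concentration. TGI is the concentration that stops growth completely.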

Legend:
Test in all cases: DTP human tumour cell line panel, 48 h
786-0 renal = system: 786-0 renal
A498 renal = system: A498 renal
A549 NSCLC = system: A549 NSCLC
ACHN renal = system: ACHN renal
CAKI-1 renal = system: CAKI-1 renal
CCRF-CEM leukemia = system: CCRF-CEM leukemia
COLO 205 colon = system: COLO 205 colon
DLD-1 colon = system: DLD-1 colon
DMS 114 small cell lung = system: DMS 114 small cell lung
DMS 273 small cell lung = system: DMS 273 small cell lung
DU-145 prostate = system: DU-145 prostate
EKVX NSCLC = system: EKVX NSCLC
HCC-2998 colon = system: HCC-2998 colon
HCT-116 colon = system: HCT-116 colon
HCT-15 colon = system: HCT-15 colon
HL-60(TB) leukemia = system: HL-60(TB) leukemia
HOP-18 NSCLC = system: HOP-18 NSCLC
HOP-92 NSCLC = system: HOP-92 NSCLC
HS 578T breast = system: HS 578T breast
HT29 colon = system: HT29 colon
IGROV1 ovarian = system: IGROV1 ovarian
KM12 colon = system: KM12 colon
KM20L2 colon = system: KM20L2 colon
LOX IMVI melanoma = system: LOX IMVI melanoma
LXFL 529 NSCLC = system: LXFL 529 NSCLC
M14 melanoma = system: M14 melanoma
MALME-3M melanoma = system: MALME-3M melanoma
MCF7 breast = system: MCF7 breast
MDA-MB-231 breast = system: MDA-MB-231 breast
MDA-MB-435 = system: MDA-MB-435
MDA-N = system: MDA-N
MOLT-4 leukemia = system: MOLT-4 leukemia
NCI-H226 lung = system: NCI-H226 lung
NCI-H23 lung = system: NCI-H23 lung
NCI-H460 lung = system: NCI-H460 lung
NCI-H522 lung = system: NCI-H522 lung
NCI/ADR-RES ovarian = system: NCI/ADR-RES ovarian
OVCAR-3 ovarian = system: OVCAR-3 ovarian
OVCAR-4 ovarian = system: OVCAR-4 ovarian
OVCAR-5 ovarian = system: OVCAR-5 ovarian
OVCAR-8 ovarian = system: OVCAR-8 ovarian
PC-3 prostate = system: PC-3 prostate
RPMI-8226 leukemia = system: RPMI-8226 leukemia
RXF 393 renal = system: RXF 393 renal
SF-268 CNS = system: SF-268 CNS
SF-295 CNS = system: SF-295 CNS
SF-539 CNS = system: SF-539 CNS
SK-MEL-2 melanoma = system: SK-MEL-2 melanoma
SK-MEL-28 melanoma = system: SK-MEL-28 melanoma
SK-MEL-5 melanoma = system: SK-MEL-5 melanoma
SK-OV-3 ovarian = system: SK-OV-3 ovarian
SN12C renal = system: SN12C renal
SNB-19 CNS = system: SNB-19 CNS
SNB-75 CNS = system: SNB-75 CNS
SR leukemia = system: SR leukemia
SW-620 colon = system: SW-620 colon
T-47D breast = system: T-47D breast
TK-10 renal = system: TK-10 renal
U251 CNS = system: U251 CNS
UACC-257 melanoma = system: UACC-257 melanoma
UACC-62 melanoma = system: UACC-62 melanoma
UO-31 renal = system: UO-31 renal
XF 498 CNS = system: XF 498 CNS

For Cc1cc2c(s1)C(=O)c1sccc1C2=O, the TGI (786-0 renal) was 3260 nM, the TGI (A498 renal) was 3170 nM and the TGI (A549 NSCLC) was 2030 nM. For the same molecule, the TGI (ACHN renal) was 2230 nM, the TGI (CAKI-1 renal) was 3170 nM and the TGI (CCRF-CEM leukemia) was over 100000 nM. It also gave a TGI (COLO 205 colon) of 3360 nM, a TGI (DLD-1 colon) of 3360 nM and a TGI (DMS 114 small cell lung) of 600 nM. It also gave a TGI (DMS 273 small cell lung) of 2620 nM, a TGI (DU-145 prostate) of 3230 nM and a TGI (EKVX NSCLC) of 3320 nM. It also gave a TGI (HCC-2998 colon) of 3150 nM, a TGI (HCT-116 colon) of 2460 nM and a TGI (HCT-15 colon) of 2520 nM. The TGI (HL-60(TB) leukemia) was over 100000 nM, the TGI (HOP-18 NSCLC) was 2810 nM and the TGI (HOP-92 NSCLC) was 2970 nM. The TGI (HS 578T breast) was 2520 nM, the TGI (HT29 colon) was 4300 nM and the TGI (IGROV1 ovarian) was 3050 nM. The TGI (KM12 colon) was 3000 nM, the TGI (KM20L2 colon) was 4750 nM and the TGI (LOX IMVI melanoma) was 422 nM. It also gave a TGI (LXFL 529 NSCLC) of 2500 nM, a TGI (M14 melanoma) of 356 nM and a TGI (MALME-3M melanoma) of 311 nM. For the same molecule, the TGI (MCF7 breast) was 2780 nM, the TGI (MDA-MB-231 breast) was 2890 nM and the TGI (MDA-MB-435) was 318 nM. It also gave a TGI (MDA-N) of 308 nM, a TGI (MOLT-4 leukemia) of over 22400 nM and a TGI (NCI-H226 lung) of 3370 nM. The TGI (NCI-H23 lung) was 360 nM, the TGI (NCI-H460 lung) was 3230 nM and the TGI (NCI-H522 lung) was 1380 nM. It also gave a TGI (NCI/ADR-RES ovarian) of 1640 nM, a TGI (OVCAR-3 ovarian) of 2190 nM and a TGI (OVCAR-4 ovarian) of 1450 nM. For the same molecule, the TGI (OVCAR-5 ovarian) was 3290 nM, the TGI (OVCAR-8 ovarian) was 1560 nM and the TGI (PC-3 prostate) was 4930 nM. It also gave a TGI (RPMI-8226 leukemia) of over 25500 nM, a TGI (RXF 393 renal) of 2460 nM and a TGI (SF-268 CNS) of 2090 nM. For the same molecule, the TGI (SF-295 CNS) was 1150 nM, the TGI (SF-539 CNS) was 622 nM and the TGI (SK-MEL-2 melanoma) was 1330 nM. For the same molecule, the TGI (SK-MEL-28 melanoma) was 377 nM, the TGI (SK-MEL-5 melanoma) was 301 nM and the TGI (SK-OV-3 ovarian) was 4470 nM. For the same molecule, the TGI (SN12C renal) was 1250 nM, the TGI (SNB-19 CNS) was 3040 nM and the TGI (SNB-75 CNS) was 1180 nM. The TGI (SR leukemia) was over 100000 nM, the TGI (SW-620 colon) was 719 nM and the TGI (T-47D breast) was 3020 nM. For the same molecule, the TGI (TK-10 renal) was 6910 nM, the TGI (U251 CNS) was 2550 nM and the TGI (UACC-257 melanoma) was 385 nM. For the same molecule, the TGI (UACC-62 melanoma) was 524 nM, the TGI (UO-31 renal) was 2290 nM and the TGI (XF 498 CNS) was 2920 nM.
